{"source": "patent US5047533A", "about": "“Acyclic purine phosphonate nucleotide analogs” (SRI International, priority 1990, dated 1991)", "system": "reverse transcriptase (RT) from Moloney murine leukemia virus (MMLV) or avian myeloblastosis virus (AMV)", "experiment": "Reverse transcriptase assay", "format": "biochemical", "details": "1 mM", "method": "For the reverse transcriptase assay, cloned reverse transcriptase (RT) (Bethesda Research Laboratories) from Moloney murine leukemia virus (MMLV) or avian myeloblastosis virus (AMV) (Seikagaku or Boehringer Mannheim) was used to direct DNA synthesis from a polyribonucleotide template and a oligodeoxynucleotide primer under reaction conditions (Houts, G. E., et al, J Virol (1979) 29:517.)\nReaction mixtures (100 μl) for the assay of MMLV RT consisted of 50 mM Tris-hydrochloride, pH 8.0, 6 mM MgCl2, 40 mM KCl, 100 μg bovine serum albumin per ml, 1 mM dithiothreitol, 0.1 mM polyadenylic acid (Pharmacia, Inc.), 0.1 mM oligo(dT)12-18 (Pharmacia, Inc.), 0.4 mM deoxythymidine triphosphate (dTTP), and 0.1 mM tritiated (93.5 Cl/mmol) dTTP (New England Nuclear). The compounds assayed were added in various concentrations and dilutions at a volume of 10 μl. Results were confirmed by duplicate assays. Dilutions were made using 10% aqueous DMSO. The total activity was measured by spotting on dry Whatman 3 mm filter disks and radioactivity was determined by liquid scintillation techniques. The assay time course was begun by adding 10 units of RT from MMLV or AMV and incubating the reaction at 37° C. […] Disks were dried under a heat lamp and the acid-insoluble product radioactivity was determined by liquid scintillation counting. […]", "data": [{"smiles": "CCOP(=O)(O)CCCOCn1cnc2c(=O)[nH]c(N)nc21", "note": "[Compound 2, 9(3'-ethylphosphono-1'-propyloxymethyl)guanine]", "values": [{"measurement": "inhibition of reverse transcriptase", "value": 100, "unit": "%"}]}]}
